Measured values: article PMC9144936, “New Cu^+2 Complexes with N-Sulfonamide Ligands: Potential Antitumor, Antibacterial, and Antioxidant Agents” (Molecules, 2022)

Test system: Swiss mice
Details: mouse, in vivo, ip, 150 mg/kg/day
Protocol: This study was carried out for a period of 2 weeks on 10 adult Swiss mice, with 5 males and 5 females.
A subacute toxicity study was carried out for a period of 2 weeks for the C2 complex. In total, 10 adult Swiss mice, 32.26 ± 1.3 g body weight, with 5 males and 5 females, were used. The mice were caged in standard polypropylene cages, in standard laboratory conditions (12 h light/dark cycle, temperature 25 ± 1 °C, and relative humidity 55 ± 5%). Standard lab chow, provided by the “Cantacuzino” National Insitute for Research and Development Bucharest, and water were freely available. All procedures performed on mice complied with the European Directive 2010/63/EU and the national low 43/2014 for Protection of Animals Used for Scientific Purposes. This study was approved by the Bioethical Board of the Faculty of Veterinary Medicine Cluj-Napoca (accord no.290/22.11.2021) and the Veterinary Sanitary Direction and Food Safety (accord no.284/21.12.2021). All mice received i.p. 150 mg complex C2/kg b.w./day, for 2 weeks. […]
The general clinical status and the body weight were recorded daily. […]
The liver and kidneys were also removed. […] To determine the hematological toxicity, erythrogram, leukogram, and thrombogram were assessed using a Diatron Abascus Junior Vet 3.

Question: With “[Cu(N-(5-Ethyl--[1,3,4]-Thiadiazole-2-yl) Naphtalenesulfonamidate)2(py)2(H2O)] [C2]” as the substance, how does the clinical changes read?
Answer: did not undergo clinical changes

Question: And the “histological analyses of kidney and liver” value?
Answer: normal structure
